Measurements: patent US10875829B1, “Azetidine derivatives useful as modulators of cortical catecholaminergic neurotransmission” (Integrative Research Laboratories Sweden AB, priority 2016, dated 2020)
Where a name gives a salt, the structure may show the parent alone. Marks after values point to notes of the source that are not given here.

Experiments:
[1] = molecular target: Human 5-HT Transporter (SERT (h)) (Homo sapiens (Human), UniProt P31645); test: Radioligand binding assay, human 5-HT transporter ([3H]imipramine); settings: for inhibition at 10 µM: 1 h, single concentration 1.0 E-5 M, duplicate, mean values; for IC50: dose-response curves
Human 5-HT Transporter (SERT (h)), sequence (P31645 whole entry): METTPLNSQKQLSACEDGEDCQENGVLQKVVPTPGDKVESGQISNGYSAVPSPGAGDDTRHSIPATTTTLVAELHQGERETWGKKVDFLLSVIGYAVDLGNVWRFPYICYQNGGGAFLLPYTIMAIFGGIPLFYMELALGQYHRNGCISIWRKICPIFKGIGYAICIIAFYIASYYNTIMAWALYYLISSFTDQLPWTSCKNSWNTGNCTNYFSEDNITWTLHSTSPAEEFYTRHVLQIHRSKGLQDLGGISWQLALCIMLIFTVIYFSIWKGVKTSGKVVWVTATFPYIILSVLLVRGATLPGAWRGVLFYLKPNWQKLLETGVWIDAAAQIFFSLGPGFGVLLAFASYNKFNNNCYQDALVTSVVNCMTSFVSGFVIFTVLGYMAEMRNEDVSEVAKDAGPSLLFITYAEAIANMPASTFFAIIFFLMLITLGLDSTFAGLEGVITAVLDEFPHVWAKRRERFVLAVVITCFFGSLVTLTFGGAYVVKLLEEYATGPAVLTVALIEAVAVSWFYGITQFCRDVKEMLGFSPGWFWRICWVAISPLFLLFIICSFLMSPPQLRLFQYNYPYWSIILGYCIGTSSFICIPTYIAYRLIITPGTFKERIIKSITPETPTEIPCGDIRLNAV
Protocol: (The measurement was performed as described in Tatsumi, M., Jansen, K., Blakely, R. D. and Richelson, E. (1999), Pharmacological profile of neuroleptics at human monoamine transporters, Eur. J. Pharmacol.
Cell membrane homogenates (12 μg protein) are incubated for 60 min at 22° C. with 2 nM [3H]imipramine in the absence or presence of the test compound in a buffer containing 50 mM Tris-HCl (pH 7.4), 120 mM NaCl, 5 mM KCl and 0.1% BSA.
Nonspecific binding is determined in the presence of 10 μM imipramine.
Following incubation, the samples are filtered rapidly under vacuum through glass fiber filters (GF/B, Packard) presoaked with 0.3% PEI and rinsed several times with an ice-cold buffer containing 50 mM Tris-HCl and 150 mM NaCl using a 96-sample cell harvester (Unifilter, Packard). The filters are dried then counted for radioactivity in a scintillation counter (Topcount, Packard) using a scintillation cocktail (Microscint 0, Packard).
The results are expressed as a percent inhibition of the control radioligand specific binding
[…] Reported values are mean values.

[2] = test system: Arc mRNA; test: m-RNA analysis: tissue levels of Arc in brain regions; assay type: in vivo, rats; settings: 33 μmol/kg s.c., 65 min before sacrifice, control saline, n=5
Protocol: Sesack et al. (Anatom Substr Glut-Dopamine Inter. Annals of NY AcadSci, 2003, 1003; 36-52) discloses that the dopaminergic systems of the brain interact strongly with central glutamate neurotransmission. To investigate potential effects of compounds as disclosed herein on cortical and striatal NMDA type glutamate receptor related synaptic signaling, Arc mRNA induction was assessed upon acute administration. Arc (Arc/Arg3.1-activity regulated cytoskeleton-associated protein/activity-regulated gene 3.1; (Link W et al., Proc Natl Acad Sci, USA, 1995, 92; 5734-8 and Lyford G L et al., Neuron, 1995, 14; 433-45), is an immediate early gene (IEG), induced by synaptic activity, whose expression and localization at synaptic sites is triggered specifically by NMDA receptor activation and strongly related to neural plasticity (Steward and Worley, Neuron, 2001, 30; 227-40, Kawashima et al., PNAS, 2009, 106(1); 316-21 and Bramham et al., Exp Brain Res, 2010, 200; 125-40).
Animals were killed 60 min after the injection of the drugs by decapitation and the brains were dissected into […] different areas: Limbic system (containing nucleus accumbens, most parts of the olfactory tubercle, ventral pallidum), striatum, frontal cortex, hippocampus and the remaining cortex.
Total RNA was prepared by the guanidin isothiocyanate method (Chomczynski P and Sacchi N, Anal Biochem, 1987, 162(1); 156-9). RNA pellets were solved in RNAse-free water and stored at −80° C. The sample concentration was determined spectrophotometrically by a NanoDrop ND1000 (Saveen Werner). A quality indicator number and an integrity number of r-RNA were measured with an Experion (Bio-rad).
A two-step reversed transcription was performed by using a SuperScript III kit (Invitrogen). 1 μg of total RNA was reverse transcribed with 5 μl 2XRT Reaction Mix, 1 μl RT Enzyme Mix, in a total volume adjusted to 10 μl with DEPC-treated water. 1 U of E. coli RNase H was added. c-DNA was diluted 40 times and stored at −20° C.
Three sequences (one gene of interest and two reference genes) were amplified together in a triplex PCR-reaction. For real-time PCR measurements: 5 μl of c-DNA reaction was amplified in a 20 μl reaction mixture containing 10 μl PerfeCta Multiplex qPCR Supermix (Quanta, VWR), 3.5 μl RNAse-free water, 0.15 μM of each primer and 0.1 μM of each probe. Real-time PCR was measured on CFX96 (Bio-rad) using the following settings for all genes: 3 min pre-incubation at 95° C. followed by 40 cycles of denaturation at 95° C. for 15 s, annealing and elongation at 60° C. for 1 minute.
Reference genes are HPRT and cyclophilin.
Compounds and saline solution (control) as indicated above were administered s.c. 65 min before sacrificing the animals. Results are presented as percent of control means±SEM. Statistical significance was assessed using Student's t-test (2 tailed) vs controls. * denotes p<0.05, ** p<0.01, n=5, *** p<0.001, n=5.
Correct PCR products are confirmed by agarose gel electrophoresis (2%) PCR products are purified with PCR purification kit from Qiagen (Valencia, Calif., USA). All genes are sequenced at MWG, Germany. The amounts of gene of interests are normalized with the two reference genes HPRT and cyclophilin A with the equation delta-delta CT.

[3] = test system: human alpha 2A adrenergic receptor and/or the non-selective adrenergic alpha 2 receptor; test: In vitro binding studies, adrenergic alpha 2 receptors ([3H]RX 821002); set-up: species or system human and/or rat; settings: concentration of 10 μM
Protocol: (The measurement was performed as described in Langin, D., Lafontan, M., Stilling, M. R. and Paris, H. (1989), [3H]RX821002: a new tool for the identification of alpha2A-adrenoceptors, Eur. J. Pharmacol. 167: 95.)
Cell membrane homogenates (48 μg protein) were incubated for 60 min at 22° C. with 1 nM [3H]RX 821002 in the absence or presence of the test compound in a buffer containing 50 mM Tris-HCl (pH 7.4), 2 mM MgCl2 and 1 mM EDTA. Nonspecific binding was determined in the presence of 100 μM (−)epinephrine. Following incubation, the samples were filtered rapidly under vacuum through glass fiber filters (GF/B, Packard) presoaked with 0.3% PEI and rinsed several times with ice-cold 50 mM Tris-HCl using a 96-sample cell harvester (Unifilter, Packard). The filters were dried then counted for radioactivity in a scintillation counter (Topcount, Packard) using a scintillation cocktail (Microscint 0, Packard).
The results are expressed as a percent inhibition of the control radioligand specific binding.
(antagonist radioligand). Membrane homogenates (rat) of cerebral cortex (160 μg protein) were incubated for 60 min at 22° C. with 0.5 nM [3H]RX 821002 in the absence or presence of the test compound in a buffer containing 50 mM Tris-HCl (pH 7.4), 2 mM MgCl2 and 1 mM EDTA. Nonspecific binding was determined in the presence of 100 μM (−)epinephrine. Following incubation, the samples were filtered rapidly under vacuum through glass fiber filters (GF/B, Packard) presoaked with 0.3% PEI and rinsed several times with ice-cold 50 mM Tris-HCl using a 96-sample cell harvester (Unifilter, Packard). The filters were dried then counted for radioactivity in a scintillation counter (Topcount, Packard) using a scintillation cocktail (Microscint 0, Packard). The results are expressed as a percent inhibition of the control radioligand specific binding. The standard reference compound was yohimbine, which was tested in each experiment at several concentrations to obtain a competition curve from which its IC50 was calculated.

| SMILES | inhibition at 10 µM [1] | Arc frontal cortex ± SEM [2] | Arc striatum ± SEM [2] | inhibition of the binding of a radioactively labeled ligand [3] | IC50 [1] | fold more potent than Example 1A at SERT ([1]; ratio of IC50 values of Table 6) |
| --- | --- | --- | --- | --- | --- | --- |
| Fc1cc(F)c(F)c(OC2CNC2)c1F [Example 3, 3-(2,3,5,6-tetrafluorophenoxy)-azetidine hydrochloric acid salt] | 11% | 149 ± 11** % of control means | 141 ± 9.0** % of control means | more than 93% |  |  |
| CCN1CC(Oc2c(F)c(F)cc(F)c2F)C1 [Example 39, 1-ethyl-3-(2,3,5,6-tetrafluorophenoxy)azetidine hydrochloric acid salt] | 1.5% |  |  |  |  |  |
| Fc1cc(F)cc(OC2CNC2)c1 [Example 52C, 3-(3,5-difluorophenoxy)azetidine hydrochloric acid salt] | 29% |  |  | more than 93% |  |  |
| Fc1cccc(OC2CNC2)c1F [Example 1A, 3-(2,3-difluorophenoxy)azetidine hydrochloric acid salt] | 59% | 236 ± 9*** % of control means | 149 ± 11* % of control means | more than 93% | 34 µM |  |
| Fc1cc(F)cc(OC2CNC2)c1.O=C(O)C(O)C(O)C(=O)O [Example 52B, 3-(3,5-difluorophenoxy)azetidine (+)-tartaric acid salt] |  | 148 ± 6.9** % of control means | 106 ± 7.1 % of control means |  |  |  |
| Fc1cc(F)c(F)c(OC2CNC2)c1 [Example 2, 3-(2,3,5-trifluorophenoxy)azetidine hydrochloric acid salt] | 12% | 96 ± 20 % of control means | 104 ± 12 % of control means |  |  |  |
| Clc1ccc(OC2CNC2)cc1Cl [Reference Compound, 3-(3,4-dichlorophenoxy)azetidine hydrochloric acid salt, reference compound] | 92% |  |  |  | 1.3 µM | 26 fold |
| Fc1ccc(F)c(OC2CNC2)c1F [Example 20, 3-(2,3,6-trifluorophenoxy)azetidine hydrochloric acid salt] | 6% |  |  | more than 93% |  |  |
